From patent publication US4181732A, “1-Branched-alkylcarbonyl-3-(3,5-dihalophenyl)imidazolidine-2,4-diones” (Sumitomo Chemical Company, Limited, priority 1977, dated 1980)

Test system: wild (susceptible) strain of Alternaria kikuchiana
Test: Fungicidal activity test: mycelial growth inhibition on agar plate, wild susceptible strain
Format: cell-based
Conditions: 96 h, 1 ppm active ingredient, 27° C., 4 days, read-out: Percentage of growth inhibition, wild susceptible strain

Structure (SMILES)	inhibition at 1 ppm [%]
CC(C)CC(=O)N1CC(=O)N(c2cc(Cl)cc(Cl)c2)C1=O [Compound 2]	78
CC(C)(C)CC(=O)N1CC(=O)N(c2cc(Cl)cc(Cl)c2)C1=O [Compound 4]	64
CCC(=O)N1CC(=O)N(c2cc(Cl)cc(Cl)c2)C1=O [drawing 37, reference compound]	49

Same assay, conditions: 96 h, 10 ppm active ingredient, 27° C., 4 days, read-out: Percentage of growth inhibition, wild susceptible strain

Structure (SMILES)	inhibition at 10 ppm [%]
CC(C)CC(=O)N1CC(=O)N(c2cc(Cl)cc(Cl)c2)C1=O [Compound 2]	96
CC(C)(C)CC(=O)N1CC(=O)N(c2cc(Cl)cc(Cl)c2)C1=O [Compound 4]	92
CCC(=O)N1CC(=O)N(c2cc(Cl)cc(Cl)c2)C1=O [drawing 37, reference compound]	68

Test system: Alternaria leaf spot of apple (Alternaria mali)
Test: Protective activity test on Alternaria leaf spot of apple
Format: in vivo
Conditions: 500 ppm active ingredient; apple var. Indo, sprayed 6 days before inoculation; no treatment 79.6

Structure (SMILES)	Disease severity [%]
CC(C)C(=O)N1CC(=O)N(c2cc(Cl)cc(Cl)c2)C1=O [Compound 1]	7.2
CC(C)CC(=O)N1CC(=O)N(c2cc(Cl)cc(Cl)c2)C1=O [Compound 2]	2.4
CC(C)(C)C(=O)N1CC(=O)N(c2cc(Cl)cc(Cl)c2)C1=O [Compound 3]	9.6
CC(C)(C)CC(=O)N1CC(=O)N(c2cc(Cl)cc(Cl)c2)C1=O [Compound 4]	5.7
CC(C)CC(=O)N1CC(=O)N(c2cc(Br)cc(Br)c2)C1=O [Compound 5]	3.0
CCC(C)C(=O)N1CC(=O)N(c2cc(Cl)cc(Cl)c2)C1=O (centres unmarked) [Compound 6]	8.1
CCC(C)CC(=O)N1CC(=O)N(c2cc(Cl)cc(Cl)c2)C1=O (centres unmarked) [Compound 7]	4.1
CCC(CC)C(=O)N1CC(=O)N(c2cc(Cl)cc(Cl)c2)C1=O [Compound 8]	3.6
CCCC(C)C(=O)N1CC(=O)N(c2cc(Cl)cc(Cl)c2)C1=O (centres unmarked) [Compound 9]	1.7
CC(C)CCC(=O)N1CC(=O)N(c2cc(Cl)cc(Cl)c2)C1=O [Compound 10]	9.9
CCC(=O)N1CC(=O)N(c2cc(Cl)cc(Cl)c2)C1=O [drawing 40, reference compound]	36.8

Test system: blue mold of orange (Penicillium italicum)
Test: Protective activity test on blue mold of orange
Format: in vivo
Conditions: 100 ppm active ingredient; orange fruits var. Unshu dipped 1 minute; index 0-5; 7 days after inoculation; no treatment 5.0
Procedure: Protective activity test on blue mold of orange (Penicillium italicum): Orange fruits (var.: Unshu) were well washed with water and air-dried. Each of the emulsifiable concentrates containing the test compounds was diluted with water to a required concentration and the air-dried orange fruits were dipped in the aqueous solution for 1 minute. After air-drying, the surface of the fruit was inoculated by spraying a spore suspension of Pencillium italicum cultured in a potato agar medium for 5 days. […] The results are shown in the mean value of disease index.

Structure (SMILES)	Mean value of disease index
CC(C)C(=O)N1CC(=O)N(c2cc(Cl)cc(Cl)c2)C1=O [Compound 1]	0.5
CC(C)CC(=O)N1CC(=O)N(c2cc(Cl)cc(Cl)c2)C1=O [Compound 2]	0.0
CC(C)(C)C(=O)N1CC(=O)N(c2cc(Cl)cc(Cl)c2)C1=O [Compound 3]	0.2
CC(C)(C)CC(=O)N1CC(=O)N(c2cc(Cl)cc(Cl)c2)C1=O [Compound 4]	0.4
CC(C)CC(=O)N1CC(=O)N(c2cc(Br)cc(Br)c2)C1=O [Compound 5]	0.1

Same assay, conditions: 200 ppm active ingredient; orange fruits var. Unshu dipped 1 minute; index 0-5; 7 days after inoculation; no treatment 5.0

Structure (SMILES)	Mean value of disease index
CCC(=O)N1CC(=O)N(c2cc(Cl)cc(Cl)c2)C1=O [drawing 43, reference compound]	3.0
CC(=O)N1CC(=O)N(c2cc(Cl)cc(Cl)c2)C1=O [reference compound]	2.8

Test system: fungicide-resistant strain of black spot fungus (Alternaria kikuchiana) resistant to Polyoxin
Test: Fungicidal activity test on fungicide-resistant pathogens: mycelial growth inhibition on agar plate, Polyoxin-resistant strain
Format: cell-based
Conditions: 96 h, 1 ppm active ingredient, 27° C., 4 days, read-out: Percentage of growth inhibition, fungicide-resistant strain

Structure (SMILES)	inhibition at 1 ppm [%]
CC(C)CC(=O)N1CC(=O)N(c2cc(Cl)cc(Cl)c2)C1=O [Compound 2]	76
CC(C)(C)CC(=O)N1CC(=O)N(c2cc(Cl)cc(Cl)c2)C1=O [Compound 4]	61
CCC(=O)N1CC(=O)N(c2cc(Cl)cc(Cl)c2)C1=O [drawing 37, reference compound]	45

Same assay, conditions: 96 h, 10 ppm active ingredient, 27° C., 4 days, read-out: Percentage of growth inhibition, fungicide-resistant strain

Structure (SMILES)	inhibition at 10 ppm [%]
CC(C)CC(=O)N1CC(=O)N(c2cc(Cl)cc(Cl)c2)C1=O [Compound 2]	95
CC(C)(C)CC(=O)N1CC(=O)N(c2cc(Cl)cc(Cl)c2)C1=O [Compound 4]	93
CCC(=O)N1CC(=O)N(c2cc(Cl)cc(Cl)c2)C1=O [drawing 37, reference compound]	69

Test system: black spot of pear (Alternaria kikuchiana)
Test: Protective activity test on black spot of pear
Format: in vivo
Conditions: 500 ppm active ingredient; pear var. 20-Seiki, sprayed 7 days before inoculation; no treatment 77.8

Structure (SMILES)	Disease severity [%]
CC(C)C(=O)N1CC(=O)N(c2cc(Cl)cc(Cl)c2)C1=O [Compound 1]	4.3
CC(C)CC(=O)N1CC(=O)N(c2cc(Cl)cc(Cl)c2)C1=O [Compound 2]	3.0
CC(C)(C)C(=O)N1CC(=O)N(c2cc(Cl)cc(Cl)c2)C1=O [Compound 3]	7.4
CC(C)(C)CC(=O)N1CC(=O)N(c2cc(Cl)cc(Cl)c2)C1=O [Compound 4]	8.9
CC(C)CC(=O)N1CC(=O)N(c2cc(Br)cc(Br)c2)C1=O [Compound 5]	2.6
CCC(C)C(=O)N1CC(=O)N(c2cc(Cl)cc(Cl)c2)C1=O (centres unmarked) [Compound 6]	5.5
CCC(C)CC(=O)N1CC(=O)N(c2cc(Cl)cc(Cl)c2)C1=O (centres unmarked) [Compound 7]	3.7
CCC(CC)C(=O)N1CC(=O)N(c2cc(Cl)cc(Cl)c2)C1=O [Compound 8]	4.0
CCCC(C)C(=O)N1CC(=O)N(c2cc(Cl)cc(Cl)c2)C1=O (centres unmarked) [Compound 9]	2.1
CC(C)CCC(=O)N1CC(=O)N(c2cc(Cl)cc(Cl)c2)C1=O [Compound 10]	9.8
CCC(=O)N1CC(=O)N(c2cc(Cl)cc(Cl)c2)C1=O [drawing 38, reference compound]	31.6
